# Values quoted from earlier work, collected in US20090010992A1 (priority 2007, published 2009).
# Settings: oral cherry-flavored syrup (Versed syrup)
compound,measurement,value
Cc1ncc2n1-c1ccc(Cl)cc1C(c1ccccc1F)=NC2 [midazolam],bioavailability (erratic),30-50%
